Measurements from patent US20110190280A1, “Thiazole And Oxazole Kinase Inhibitors” (priority 2007, published 2011).
Where a name gives a salt, the structure may show the parent alone.

Tests used:
[1] = biological target: B-Raf (Homo sapiens, UniProt P15056); test: B-Raf Accelerated MEK ATPase assay (BRAMA); assay type: biochemical; details: BRAMA enzyme assay; class by pIC50; read-out: B-Raf Activity
Procedure, shortened: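 B-Raf activity read as intrinsic MEK ATPase: catalytic activated RAF with non-phosphorylated MEK drives ADP formation, coupled through pyruvate kinase and lactate dehydrogenase to NADH oxidation, independent of ERK phosphorylation.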

[2] = biological target: EGFR (Homo sapiens, UniProt P00533); test: EGFR kinase autophosphorylation assay (peptide phosphorylation, HTRF); assay type: biochemical; details: 0.8 nM EGFR, class by pIC50
Protocol: (§1) A selection of compounds of the present invention were tested for inhibitory activity against EGFR and ErbB2 kinases in autophosphorylation assays.
(§2) The method measures the ability of the isolated enzyme to catalyse the transfer of the gamma-phosphate from ATP onto the tyrosine residue of a biotinylated synthetic peptide referenced “Peptide C” in Brignola, P. S., et al, (2002) J. Biol. Chem. 277(2):1576-1585. The extent of tyrosine phosphorylation was measured using an anti-phosphotyrosine antibody, and quantified by homogenous time-resolved fluorescence (HTRF).
(§3) Reactions were performed in black 384-well polystyrene flat-bottom plates in a final volume of 20 ul. Assays were performed by adding 10 μl of each of the following solutions, substrate Mix and enzyme mix: The Substrate mix contained 100 mM 3-[N-morpholino]propanesulfonic acid (MOPS) (pH 7.5), 2 mM MnCl2, 20 μM ATP, 0.01% Tween-20, 0.1 mg/mL (BSA), 0.8 uM peptide substrate, and 1 mM dithiothreitol. The enzyme mix contained 100 mM MOPS (pH7.5); 0.01% Tween-20; 0.1 mg/mL BSA, and either 0.8 nM EGFR, 10 nM ErbB2, or 1 nM ErbB4
(§4) The enzyme mix was added to the compound plates and the plates were incubated at 20° C. for 1 hour. The reactions were allowed to proceed for 90 minutes at 20° C. The reactions were then terminated by the addition of 20 μl 100 mM EDTA to each well. 40 μl/well of HTRF detection mix were added to the assay plates. The final concentrations of the detection reagents were: 100 mM HEPES (pH7.5), 0.1 mg/mL BSA, 15 nM streptavidin-labeled allophycocyanin (PerkinElmer), and 1 nM europium-labeled anti-phosphotyrosine antibody (PerkinElmer). Assay plates were left unsealed and were counted in a Wallac Multilabel Counter 1420 (PerkinElmer).
(§5) Compounds under analysis were dissolved in Me2SO to 1.0 mM and serially diluted 1 to 3 with Me2SO through twelve dilutions. 1 μl of each concentration was transferred to the corresponding well of an assay plate. This creates a final compound concentration range from 0.00027 to 47.6 μM.
(§6) The data for dose responses were plotted as % Inhibition calculated with the data reduction formula 100*(1−(U1−C2)/(C1−C2)) versus concentration of compound where U is the unknown value, C1 is the average control value obtained for 4.76% DMSO, and C2 is the average control value obtained for 0.035 M EDTA. Data were fitted with a curve described by:
(§7) where Vmax is the upper asymptote, Y2 is the Y intercept, and K is the IC50. The results for each compound were recorded as pIC50s, calculated as follows: […]
(§8) In the following table: • “+” indicates no pIC50 measurement greater than 6 against EGFR or ErbB2, • “++” indicates at least one pIC50 measurement greater than 6 against EGFR or ErbB2 but no measurement greater than pIC50 of 7; and • “+++” indicates at least one pIC50 measurement of greater than 7 against EGFR or ErbB2.

[3] = biological target: ErbB2 (Homo sapiens, UniProt P04626); test: ErbB2 kinase autophosphorylation assay (peptide phosphorylation, HTRF); assay type: biochemical; details: 10 nM ErbB2, HTRF; class by pIC50
Protocol: as §1, §2, §3, §4, §5, §6, §7, §8

[4] = system: A375P tumor cells; test: Cell growth inhibition assay (CellTiter-Glo), A375P; details: Homo sapiens, 72 h, read-out: Activity in A375P Tumor Cells;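 note: total ATP luminescence used as proxy for cell number, serial threefold compound dilutions at 0.2% DMSO, growth inhibition expressed versus DMSO vehicle-treated wells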
[5] = system: HT-29 tumor cells; test: Cell growth inhibition assay (CellTiter-Glo), HT-29; details: Homo sapiens, HT-29, 72 h, read-out: Activity in HT-29 Tumor Cells;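 note: ATP content read by luminescence as proxy for cell number, growth inhibition versus DMSO vehicle wells, 0.2% DMSO final, nine serial threefold compound dilutions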
Protocol: Cell Growth Inhibition Assays Human colon tumor cells (Colo205) were cultured in RPMI (Mediatech 50-020-PB) containing 10% FBS and 1% penicillin-streptomycin. […] Human melanoma cancer cells (A375-F11S) were cultured in RPMI (Mediatech 50-020-PB) containing 10% FBS, 1% sodium pyruvate, and 1% penicillin-streptomycin. Human colon cancer cells (HT-29) were cultured in high glucose DMEM (Mediatech 50-013-PB) containing 10% FBS and 1% penicillin-streptomycin. Human melanoma cancer cells (SK-MEL-3) were cultured in McCoy's 5A (50-025-PB) containing 15% FBS, and 1% penicillin-streptomycin. All cell lines were maintained at 37° C. in a humidified 5% CO2, 95% air incubator.
The next day, compounds were diluted as follows: For 96-well assays, 13.5 μl of compound in DMSO were diluted using nine (9) serial 1:3 dilutions of 4.5 μl in 9 μl of DMSO. Medium (270 μl/well of RPMI with 10% FBS and 1% penicillin-streptomycin) was added to the plates. Aliquots (7 μl) were added to cells in the final assay giving a final DMSO concentration of 0.2%. For 384-well assays, 15 μl of compound in DMSO were diluted using nine (9) serial 1:3 dilutions of 5 μl in 10 μl of DMSO, followed by a further dilution of 5 μl of compound with 95 μl of medium, of which 2 μl are added to cells in the final assay giving a final DMSO concentration of 0.2%. Cells were incubated at 37° C., 5% CO2 for 3 days.
Total ATP was measured (as a surrogate estimate of cell number) using CellTiter-Glo® (Promega G7571) reagent. Briefly, plates were removed from the incubator and allowed to equilibrate to room temperature for 30 minutes. CellTiter-Glo® (25 μl or 55 μl for 384-well or 96-well assays, respectively) reagent was added to each well and plates were shaken on an orbital plate shaker for 2 minutes. Plates were incubated without shaking for a further 30 minutes and read on an LJL Analyst GT reader in luminometer mode with an integration time of 0.5 seconds per well. Percent inhibition of cell growth was calculated relative to DMSO vehicle-treated control wells.

[6] = system: Colo205 tumor cells; test: Cell growth inhibition assay (CellTiter-Glo), Colo205; details: Homo sapiens, COLO 205, 72 h, read-out: Activity in Colo205 Tumor Cells;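 note: growth measured via total ATP luminescence (CellTiter-Glo) as a proxy for cell number, inhibition expressed against DMSO-treated control wells, 3-day exposure at 0.2% final DMSO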
[7] = system: SK-MEL-3 tumor cells; test: Cell growth inhibition assay (CellTiter-Glo), SK-MEL-3; details: Homo sapiens, SK-MEL3, 72 h, read-out: Activity in SK-MEL-3 Tumor Cells;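 note: human melanoma cells grown with compound for 3 days in 0.2% DMSO, total ATP read by luminescence as proxy for cell number, growth inhibition versus DMSO-treated wells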
[8] = system: SK-MEL-28 tumor cells; test: Cell growth inhibition assay (CellTiter-Glo), SK-MEL-28; details: Homo sapiens, SK-MEL-28, 72 h, read-out: Activity in SK-MEL-28 Tumor Cells;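 note: luminescent total ATP as a proxy for cell number, threefold serial dilutions at 0.2% DMSO, percent growth inhibition versus DMSO vehicle control wells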

Sequence of B-Raf (P15056 whole entry): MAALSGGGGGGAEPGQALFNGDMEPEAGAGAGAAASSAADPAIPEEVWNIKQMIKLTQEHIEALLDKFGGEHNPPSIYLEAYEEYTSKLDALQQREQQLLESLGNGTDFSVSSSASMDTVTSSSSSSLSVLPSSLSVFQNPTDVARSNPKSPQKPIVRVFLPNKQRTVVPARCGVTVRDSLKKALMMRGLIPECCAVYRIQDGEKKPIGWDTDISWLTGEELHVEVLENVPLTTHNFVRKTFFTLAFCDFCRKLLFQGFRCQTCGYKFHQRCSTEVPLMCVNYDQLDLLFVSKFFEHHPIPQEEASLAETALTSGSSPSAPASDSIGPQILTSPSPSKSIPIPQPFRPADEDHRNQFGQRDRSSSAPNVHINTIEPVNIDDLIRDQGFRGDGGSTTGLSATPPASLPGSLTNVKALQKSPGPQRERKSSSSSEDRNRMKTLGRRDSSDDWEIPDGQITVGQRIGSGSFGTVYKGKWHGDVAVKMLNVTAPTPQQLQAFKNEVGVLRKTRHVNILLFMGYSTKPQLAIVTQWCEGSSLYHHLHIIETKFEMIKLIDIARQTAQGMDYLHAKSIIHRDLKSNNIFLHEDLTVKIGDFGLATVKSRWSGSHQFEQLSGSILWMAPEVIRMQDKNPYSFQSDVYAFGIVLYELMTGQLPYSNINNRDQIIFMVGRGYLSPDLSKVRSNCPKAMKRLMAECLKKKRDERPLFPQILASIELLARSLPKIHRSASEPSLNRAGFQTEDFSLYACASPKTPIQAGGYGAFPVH
Sequence of EGFR (P00533 25-1210): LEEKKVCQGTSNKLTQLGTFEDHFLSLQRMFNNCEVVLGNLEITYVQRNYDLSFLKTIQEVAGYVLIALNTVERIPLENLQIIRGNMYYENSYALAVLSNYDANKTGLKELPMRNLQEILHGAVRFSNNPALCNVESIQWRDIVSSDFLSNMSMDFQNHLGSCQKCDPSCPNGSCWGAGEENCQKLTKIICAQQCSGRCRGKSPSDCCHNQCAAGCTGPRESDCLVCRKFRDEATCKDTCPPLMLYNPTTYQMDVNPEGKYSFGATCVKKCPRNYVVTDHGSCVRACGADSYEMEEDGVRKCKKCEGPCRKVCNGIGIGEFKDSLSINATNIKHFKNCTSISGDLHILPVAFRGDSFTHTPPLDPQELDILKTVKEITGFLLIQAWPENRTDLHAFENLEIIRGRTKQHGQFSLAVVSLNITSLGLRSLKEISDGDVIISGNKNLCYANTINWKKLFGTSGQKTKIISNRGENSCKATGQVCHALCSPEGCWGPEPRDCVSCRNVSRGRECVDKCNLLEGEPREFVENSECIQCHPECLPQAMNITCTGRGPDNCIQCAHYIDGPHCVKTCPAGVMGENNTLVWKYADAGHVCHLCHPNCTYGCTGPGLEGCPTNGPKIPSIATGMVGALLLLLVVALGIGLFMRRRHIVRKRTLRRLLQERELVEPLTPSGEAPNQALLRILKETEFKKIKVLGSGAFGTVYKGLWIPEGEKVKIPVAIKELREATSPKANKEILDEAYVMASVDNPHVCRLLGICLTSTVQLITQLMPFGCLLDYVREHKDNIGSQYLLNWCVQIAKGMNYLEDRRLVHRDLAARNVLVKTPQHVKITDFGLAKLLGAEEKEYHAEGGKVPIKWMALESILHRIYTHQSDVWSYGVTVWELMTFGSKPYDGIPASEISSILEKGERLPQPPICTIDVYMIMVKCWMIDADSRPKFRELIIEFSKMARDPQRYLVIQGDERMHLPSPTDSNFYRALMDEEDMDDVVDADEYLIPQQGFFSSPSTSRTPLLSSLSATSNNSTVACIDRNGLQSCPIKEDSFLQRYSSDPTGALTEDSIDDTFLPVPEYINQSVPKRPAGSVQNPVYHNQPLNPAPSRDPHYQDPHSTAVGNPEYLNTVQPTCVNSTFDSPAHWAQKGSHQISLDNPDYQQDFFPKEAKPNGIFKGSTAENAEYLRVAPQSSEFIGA
Sequence of ErbB2 (P04626 23-1255): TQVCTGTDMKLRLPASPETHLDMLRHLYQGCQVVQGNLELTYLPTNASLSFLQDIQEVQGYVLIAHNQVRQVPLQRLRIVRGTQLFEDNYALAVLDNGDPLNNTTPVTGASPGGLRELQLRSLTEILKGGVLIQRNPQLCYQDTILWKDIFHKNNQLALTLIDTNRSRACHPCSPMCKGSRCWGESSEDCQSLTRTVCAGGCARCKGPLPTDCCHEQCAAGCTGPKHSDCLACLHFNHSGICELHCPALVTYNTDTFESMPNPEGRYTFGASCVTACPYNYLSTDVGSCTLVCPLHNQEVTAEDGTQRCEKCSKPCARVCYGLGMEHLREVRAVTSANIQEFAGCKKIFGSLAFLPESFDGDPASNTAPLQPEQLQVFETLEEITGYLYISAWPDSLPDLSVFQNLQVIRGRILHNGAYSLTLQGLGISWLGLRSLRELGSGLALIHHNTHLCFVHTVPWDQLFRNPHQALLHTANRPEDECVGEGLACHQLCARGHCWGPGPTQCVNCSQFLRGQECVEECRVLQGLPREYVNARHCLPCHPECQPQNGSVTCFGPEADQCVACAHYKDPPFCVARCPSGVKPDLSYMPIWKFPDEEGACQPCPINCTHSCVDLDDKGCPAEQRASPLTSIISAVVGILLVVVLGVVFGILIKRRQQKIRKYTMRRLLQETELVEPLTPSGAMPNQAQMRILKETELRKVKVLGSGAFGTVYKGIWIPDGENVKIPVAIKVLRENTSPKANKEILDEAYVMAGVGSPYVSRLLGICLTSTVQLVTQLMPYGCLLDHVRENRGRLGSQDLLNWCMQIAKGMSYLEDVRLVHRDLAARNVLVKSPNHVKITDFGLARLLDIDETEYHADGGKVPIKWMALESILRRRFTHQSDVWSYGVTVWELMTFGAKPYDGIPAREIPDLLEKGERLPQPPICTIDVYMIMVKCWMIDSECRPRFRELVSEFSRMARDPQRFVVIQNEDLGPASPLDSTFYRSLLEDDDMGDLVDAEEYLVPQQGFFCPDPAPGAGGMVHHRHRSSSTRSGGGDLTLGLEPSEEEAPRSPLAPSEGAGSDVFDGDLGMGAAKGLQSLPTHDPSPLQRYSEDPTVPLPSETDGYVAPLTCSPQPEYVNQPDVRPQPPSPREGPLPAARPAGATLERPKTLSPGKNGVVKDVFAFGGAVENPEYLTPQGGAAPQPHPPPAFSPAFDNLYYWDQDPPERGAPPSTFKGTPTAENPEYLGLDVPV

SMILES	IC50 [1] [nM]	IC50 [2] [nM]	IC50 [3] [nM]	IC50 [4] [nM]	IC50 [5] [nM]	IC50 [6] [nM]	IC50 [7] [nM]	IC50 [8] [nM]
CCNc1nc(-c2cc(C)cc(OC)c2)c(-c2ccnc(Nc3ccc(N4CCOCC4)nc3)n2)s1 [Example 35, 4-{2-(Ethylamino)-4-[3-methyl-5-(methyloxy)phenyl]-1,3-thiazol-5-yl}-N-[6-(4-morpholinyl)-3-pyridinyl]-2-pyrimidinamine]	< 100	> 1000	> 1000	< 500	< 500	< 500	< 500	< 500
CCNc1nc(-c2cc(C)cc(OC)c2)c(-c2ccnc(Nc3ccc(N4CCN(C(C)=O)CC4)nc3)n2)s1 [Example 36, N-[6-(4-Acetyl-1-piperazinyl)-3-pyridinyl]-4-{2-(ethylamino)-4-[3-methyl-5-(methyloxy)phenyl]-1,3-thiazol-5-yl}-2-pyrimidinamine]	< 100	> 1000	> 1000	< 500	< 500	< 500	< 500	< 500
COc1cc(-c2nc(N3CCCC3)sc2-c2ccnc(Nc3ccc(OCCN4CCCC4)c(F)c3)n2)ccc1Cl [Example 78, 4-[4-[4-Chloro-3-(methyloxy)phenyl]-2-(1-pyrrolidinyl)-1,3-thiazol-5-yl]-N-(3-fluoro-4-{[2-(1-pyrrolidinyl)ethyl]oxy}phenyl)-2-pyrimidinamine]	< 100	100 to 1000	100 to 1000	–	–	500 to 5000	–	500 to 5000
CCNc1nc(-c2cc(C)cc(OC)c2)c(-c2ccnc(Nc3ccc(N4CCN(C(C)=O)CC4)nc3)n2)o1 [Example 70, N-[6-(4-Acetyl-1-piperazinyl)-3-pyridinyl]-4-{2-(ethylamino)-4-[3-methyl-5-(methyloxy)phenyl]-1,3-oxazol-5-yl}-2-pyrimidinamine]	–	> 1000	> 1000	< 500	< 500	–	< 500	–
CCNc1nc(-c2cc(OC)cc(OC)c2)c(-c2ccnc(Nc3ccc(N4CCN5CCOC[C@H]5C4)nc3)n2)o1 [Example 135]	< 100	> 1000	> 1000	–	–	500 to 5000	–	> 5000
COc1cc(C)cc(-c2nc(C(C)C)sc2-c2ccnc(Nc3ccc(N4CCN5CCCCC5C4)c(F)c3)n2)c1 (stereo not drawn) [Example 113]	< 100	> 1000	> 1000	–	–	500 to 5000	–	500 to 5000
COc1cc(C)cc(-c2nc(C(C)C)sc2-c2ccnc(Nc3ccc(N4CCN(CCS(C)(=O)=O)CC4)c(F)c3)n2)c1 [Example 62, N-(3-Fluoro-4-{4-[2-(methylsulfonyl)ethyl]-1-piperazinyl}phenyl)-4-{2-(1-methylethyl)-4-[3-methyl-5-(methyloxy)phenyl]-1,3-thiazol-5-yl}-2-pyrimidinamine]	< 100	–	–	< 500	< 500	500 to 5000	< 500	500 to 5000
CCNc1nc(-c2cc(OC)cc(OC)c2)c(-c2ccnc(Nc3ccc(N4CCN(CCF)CC4)nc3)n2)o1 [Example 112]	< 100	–	–	500 to 5000	500 to 5000	< 500	500 to 5000	500 to 5000
CCNc1nc(-c2ccc(Cl)c(C)c2)c(-c2ccnc(Nc3ccc(OCCN4CCCC4)c(Cl)c3)n2)s1 [Example 54, 4-[4-(4-Chloro-3-methylphenyl)-2-(ethylamino)-1,3-thiazol-5-yl]-N-(3-chloro-4-{[2-(1-pyrrolidinyl)ethyl]oxy}phenyl)-2-pyrimidinamine]	< 100	–	–	500 to 5000	< 500	< 500	< 500	500 to 5000
COc1cc(OC)cc(-c2nc(NC3CC3)sc2-c2ccnc(Nc3ccc(OC4CCN(CCS(C)(=O)=O)CC4)c(F)c3)n2)c1 [Example 17, 4-[4-[3,5-Bis(methyloxy)phenyl]-2-(cyclopropylamino)-1,3-thiazol-5-yl]-N-[3-fluoro-4-({1-[2-(methylsulfonyl)ethyl]-4-piperidinyl}oxy)phenyl]-2-pyrimidinamine]	< 100	–	–	< 500	< 500	< 500	< 500	< 500
CCNc1nc(-c2cc(C)cc(OC)c2)c(-c2ccnc(Nc3ccc(N4CCOCC4)c(C(F)(F)F)c3)n2)s1 [Example 25, 4-{2-(Ethylamino)-4-[3-methyl-5-(methyloxy)phenyl]-1,3-thiazol-5-yl}-N-[4-(4-morpholinyl)-3-(trifluoromethyl)phenyl]-2-pyrimidinamine]	< 100	–	–	< 500	< 500	500 to 5000	< 500	500 to 5000
CCNc1nc(-c2cc(OC)cc(OC)c2)c(-c2ccnc(Nc3ccc(N4CCN5CCCCC5C4)c(F)c3)n2)s1 (stereo not drawn) [Example 115]	< 100	–	–	500 to 5000	< 500	< 500	< 500	500 to 5000
COc1cc(OC)cc(-c2nc(NC3CC3)sc2-c2ccnc(Nc3ccc(OCCN4CCCC4=O)c(F)c3)n2)c1 [Example 16, 1-(2-{[4-({4-[4-[3,5-Bis(methyloxy)phenyl]-2-(cyclopropylamino)-1,3-thiazol-5-yl]-2-pyrimidinyl}amino)-2-fluorophenyl]oxy}ethyl)-2-pyrrolidinone trifluoroacetate]	< 100	–	–	500 to 5000	< 500	500 to 5000	< 500	500 to 5000
COc1cccc(-c2nc(C(C)C)sc2-c2ccnc(Nc3ccc(OC4CCN(C(C)C)CC4)c(F)c3)n2)c1 [Example 59, N-(3-Fluoro-4-{[1-(1-methylethyl)-4-piperidinyl]oxy}phenyl)-4-{2-(1-methylethyl)-4-[3-(methyloxy)phenyl]-1,3-thiazol-5-yl}-2-pyrimidinamine]	< 100	–	–	500 to 5000	< 500	< 500	< 500	500 to 5000
CCNc1nc(-c2cccc(N(C)C)c2)c(-c2ccnc(Nc3ccc(N4CCOCC4)nc3)n2)s1 [Example 47, 4-[4-[3-(Dimethylamino)phenyl]-2-(ethylamino)-1,3-thiazol-5-yl]-N-[6-(4-morpholinyl)-3-pyridinyl]-2-pyrimidinamine]	< 100	–	–	< 500	< 500	500 to 5000	< 500	> 5000
COc1cc(OC)cc(-c2nc(NCCF)sc2-c2ccnc(Nc3ccc(OCCN4CCCC4)c(Cl)c3)n2)c1 [Example 21, 4-{4-[3,5-Bis(methyloxy)phenyl]-2-[(2-fluoroethyl)amino]-1,3-thiazol-5-yl}-N-(3-chloro-4-{[2-(1-pyrrolidinyl)ethyl]oxy}phenyl)-2-pyrimidinamine]	< 100	–	–	< 500	< 500	500 to 5000	< 500	500 to 5000
